Source: US12570675B2, “Boronic acid compounds” (LG CHEM, LTD., priority 2020, dated 2026)

biological target: Proteasome chymotrypsin-like activity (S26 protein from RPMI8226 cells) (Homo sapiens, UniProt P28074); format: biochemical; settings: S26 protein from RPMI8226 cell extract 2 ug/well, substrate 20 uM, 37° C., 90 minutes; read-out: Proteasome chymotrypsin-like activity inhibition IC50
Experimental: The abilities to inhibit the proteasome activity of the compounds described in the Examples of the present invention and boronic acid drugs were evaluated as follows.
RPMI8226 cells, which is a multiple myeloma cell line, were cultured and then separated by a centrifuge, and washed twice with phosphate buffered saline (PBS). 20 mM of a tris-HCl (pH 8.0) buffer solution was added to the washed cells, and the cells were disrupted by a homogenizer and centrifuged to obtain S26 protein from the supernatant. Suc-Leu-Leu-Val-Tyr-AMC, for a fluorogenic substrate for the chymotrypsin-like activity of the proteasome, and Z-Leu-Leu-Glu-AMC, for a fluorogenic substrate for the caspase-like activity, were purchased from Calbiochem, EMD Millipore and used. Into each well of a 96-well plate (opaque, black round bottom), 20 ul of the S26 protein (final RPMI8226 cell extract concentration: 2 ug/well), 10 ul of S26 proteasome inhibitor serially diluted from 10 uM (final DMSO concentration: 0.5%), and 20 ul of the fluorogenic substrate for the proteasome chymotrypsin-like or caspase-like activity (final concentration: 20 uM) were added and mixed and allowed to react in a 37° C. incubator for 90 minutes. The fluorescence of the fluorogenic substrate was measured by FlexStation II Fluorometer (Molecular Devices). The fluorescence inhibited by the compound diluted at each concentration was measured as the relative percentage value for the amount obtained from the treatment only with the S26 protein and the fluorogenic substrate. IC50 (inhibitory concentration 50) was expressed in terms of a concentration that inhibits 50% of the maximum fluorescence induced by the fluorogenic substrate.

Chain of Proteasome chymotrypsin-like activity (S26 protein from RPMI8226 cells) (P28074 60-263 limits assumed): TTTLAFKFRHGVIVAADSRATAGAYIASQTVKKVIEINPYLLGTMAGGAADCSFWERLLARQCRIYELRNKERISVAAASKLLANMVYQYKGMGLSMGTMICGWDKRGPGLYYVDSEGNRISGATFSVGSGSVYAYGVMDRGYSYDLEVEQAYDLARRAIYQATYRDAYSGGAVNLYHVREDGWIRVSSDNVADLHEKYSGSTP

`CC(C)C[C@H](NC(=O)C1CC(c2cccc(OC(F)(F)F)c2)=NO1)B(O)O` (stereo partly drawn) [Example 37, ((1R)-3-methyl-1-(3-(3-(trifluoromethoxy)phenyl)-4,5-dihydroisoxazol-5-carboxamido)butyl)boronic acid] was tested. Which IC50 did it give?
The IC50 was less than 500 nM.

Which IC50 does the source give for `CC(C)C[C@H](NC(=O)C1CC(c2ccc(OC(F)(F)F)cc2)=NO1)B(O)O` (stereo partly drawn) [Example 38, ((1R)-3-methyl-1-(3-(4-(trifluoromethoxy)phenyl)-4,5-dihydroisoxazol-5-carboxamido)butyl)boronic acid] here?
Its IC50 is less than 500 nM.

How did the IC50 turn out when `CC(C)C[C@H](NC(=O)C1CC(c2ccccc2OC(F)(F)F)=NO1)B(O)O` (stereo partly drawn) [Example 39, ((1R)-3-methyl-1-(3-(2-(trifluoromethoxy)phenyl)-4,5-dihydroisoxazol-5-carboxamido)butyl)boronic acid] was run?
Its IC50 is less than 500 nM.

For `CC(C)C[C@H](NC(=O)C1CC(c2cccc(Oc3ccccc3)c2)=NO1)B(O)O` (stereo partly drawn) [Example 40, ((1R)-3-methyl-1-(3-(3-phenoxyphenyl)-4,5-dihydroisoxazol-5-carboxamido)butyl)boronic acid], which IC50 is on record?
Its IC50 is less than 500 nM.

`CC(C)C[C@H](NC(=O)C1CC(c2cccc(Oc3ccccn3)c2)=NO1)B(O)O` (stereo partly drawn) [Example 41, ((1R)-3-methyl-1-(3-(3-(pyridin-2-yloxy)phenyl)-4,5-dihydroisoxazol-5-carboxamido)butyl)boronic acid] was tested. Which IC50 did it give?
The IC50 was less than 250 nM.

`CC(C)C[C@H](NC(=O)C1CC(c2ccc(Oc3ccccn3)cc2)=NO1)B(O)O` (stereo partly drawn) [Example 42, ((1R)-3-methyl-1-(3-(4-(pyridin-2-yloxy)phenyl)-4,5-dihydroisoxazol-5-carboxamido)butyl)boronic acid] was tested. Which IC50 did it give?
The IC50 was less than 250 nM.

For `CC(C)C[C@H](NC(=O)C1CC(c2cccc(OCc3ccccn3)c2)=NO1)B(O)O` (stereo partly drawn) [Example 43, ((1R)-3-methyl-1-(3-(3-(pyridin-2-ylmethoxy)phenyl)-4,5-dihydroisoxazol-5-carboxamido)butyl)boronic acid], which IC50 is on record?
Its IC50 is less than 250 nM.

Which IC50 does the source give for `CC(C)C[C@H](NC(=O)C1CC(c2ccc(Oc3ccccc3)cc2)=NO1)B(O)O` (stereo partly drawn) [Example 44, ((1R)-3-methyl-1-(3-(4-phenoxyphenyl)-4,5-dihydroisoxazol-5-carboxamido)butyl)boronic acid] here?
Its IC50 is less than 500 nM.

For `CC(C)C[C@H](NC(=O)C1(Cc2ccccc2)CC(COCc2cc(Cl)ccc2Cl)=NO1)B(O)O` (stereo partly drawn) [Example 45, ((1R)-1-(5-benzyl-3-(((2,5-dichlorobenzyl)oxy)methyl)-4,5-dihydroisoxazol-5-carboxamido)-3-methylbutyl)boronic acid], which IC50 is on record?
Its IC50 is less than 10 nM.

With `Cc1nc(COCC2=NOC(Cc3ccccc3)(C(=O)N[C@@H](CC(C)C)B(O)O)C2)c(Cl)s1` (stereo partly drawn) [Example 50, ((1R)-1-(5-benzyl-3-(((5-chloro-2-methylthiazol-4-yl)methoxy)methyl)-4,5-dihydroisoxazol-5-carboxamido)-3-methylbutyl)boronic acid] as the compound, how does the IC50 read?
The IC50 was less than 10 nM.

With `CC(C)C[C@H](NC(=O)C1(Cc2ccccc2)CC(COCc2cccc(Br)c2)=NO1)B(O)O` (stereo partly drawn) [Example 52, ((1R)-1-(5-benzyl-3-(((3-bromobenzyl)oxy)methyl)-4,5-dihydroisoxazol-5-carboxamido)-3-methylbutyl)boronic acid] as the compound, how does the IC50 read?
Its IC50 is less than 10 nM.

With `CC(C)C[C@H](NC(=O)C1(Cc2ccccc2)CC(COCc2cccc(Br)n2)=NO1)B(O)O` (stereo partly drawn) [Example 53, ((1R)-1-(5-benzyl-3-(((6-bromopyridin-2-yl)methoxy)methyl)-4,5-dihydroisoxazol-5-carboxamido)-3-methylbutyl)boronic acid] as the compound, how does the IC50 read?
Its IC50 is less than 10 nM.

Which IC50 does the source give for `CC(C)C[C@H](NC(=O)C1(Cc2ccccc2)CC(COCc2cccc(-c3ccccc3)c2)=NO1)B(O)O` (stereo partly drawn) [Example 54, ((1R)-1-(3-(([1,1′-biphenyl]-3-ylmethoxy)methyl)-5-benzyl-4,5-dihydroisoxazol-5-carboxamido)-3-methylbutyl)boronic acid] here?
Its IC50 is less than 10 nM.

With `CC(C)C[C@H](NC(=O)C1(Cc2ccccc2)CC(COCc2cccc(-c3ccccc3)n2)=NO1)B(O)O` (stereo partly drawn) [Example 55, [(1R)-1-[[5-benzyl-3-[(6-phenyl-2-pyridyl)methoxymethyl]-4H-1,2-oxazol-5-carbonyl]amino]-3-methyl-butyl]boronic acid] as the compound, how does the IC50 read?
Its IC50 is less than 10 nM.

With `COc1ccc(-c2cccc(COCC3=NOC(Cc4ccccc4)(C(=O)N[C@@H](CC(C)C)B(O)O)C3)c2)cc1` (stereo partly drawn) [Example 56, ((1R)-1-(5-benzyl-3-(((4′-methoxy-[1,1′-biphenyl]-3-yl)methoxy)methyl)-4,5-dihydroisoxazol-5-carboxamido)-3-methylbutyl)boronic acid] as the compound, how does the IC50 read?
Its IC50 is less than 10 nM.

`COc1cccc(-c2cccc(COCC3=NOC(Cc4ccccc4)(C(=O)N[C@@H](CC(C)C)B(O)O)C3)c2)c1` (stereo partly drawn) [Example 57, ((1R)-1-(5-benzyl-3-(((3′-methoxy-[1,1′-biphenyl]-3-yl)methoxy)methyl)-4,5-dihydroisoxazol-5-carboxamido)-3-methylbutyl)boronic acid] was tested. Which IC50 did it give?
Its IC50 is less than 25 nM.

How did the IC50 turn out when `COc1ccccc1-c1cccc(COCC2=NOC(Cc3ccccc3)(C(=O)N[C@@H](CC(C)C)B(O)O)C2)c1` (stereo partly drawn) [Example 58, [(1R)-1-[[5-benzyl-3-[[3-(2-methoxyphenyl)phenyl]methoxymethyl]-4H-1,2-oxazol-5-carbonyl]amino]-3-methyl-butyl]boronic acid] was run?
Its IC50 is less than 25 nM.

Which IC50 does the source give for `CC(C)C[C@H](NC(=O)C1CC(CNC(=O)c2ccccn2)=NO1)B(O)O` (stereo partly drawn) [Example 60] here?
Its IC50 is less than 250 nM.

How did the IC50 turn out when `CC(C)C[C@H](NC(=O)C1CC(CNC(=O)c2cccc3ncccc23)=NO1)B(O)O` (stereo partly drawn) [Example 62, ((1R)-3-methyl-1-(3-((quinolin-5-carboxamido)methyl)-4,5-dihydroisoxazol-5-carboxamido)butyl)boronic acid] was run?
Its IC50 is less than 25 nM.

For `CC(C)C[C@H](NC(=O)C1ON=C(CNC(=O)c2nccc3ccccc23)C1C)B(O)O` (stereo partly drawn) [Example 65, ((1R)-1-(3-((isoquinolin-1-carboxamido)methyl)-4-methyl-4,5-dihydroisoxazol-5-carboxamido)-3-methylbutyl)boronic acid], which IC50 is on record?
Its IC50 is less than 250 nM.

How did the IC50 turn out when `CC(C)C[C@H](NC(=O)C1CC([C@@H](NC(=O)c2cccc3c2CCCC3)C(C)C)=NO1)B(O)O` (stereo partly drawn) [Example 66, ((1R)-3-methyl-1-(3-((S)-2-methyl-1-(5,6,7,8-tetrahydronaphthalen-1-carboxamido)propyl)-4,5-dihydroisoxazol-5-carboxamido)butyl)boronic acid] was run?
Its IC50 is less than 25 nM.

For `CC(C)C[C@H](NC(=O)C1CC([C@@H](NC(=O)c2nccc3ccccc23)C(C)C)=NO1)B(O)O` (stereo partly drawn) [Example 67, ((1R)-1-(3-((S)-1-(isoquinolin-1-carboxamido)-2-methylpropyl)-4,5-dihydroisoxazol-5-carboxamido)-3-methylbutyl)boronic acid], which IC50 is on record?
The IC50 was less than 25 nM.

For `CC(C)C[C@H](NC(=O)C1CC(CNC(=O)c2ccc3ccccc3c2)=NO1)B(O)O` (stereo partly drawn) [Example 69, [(1R)-3-methyl-1-[[3-[(naphthalen-2-carbonylamino)methyl]-4,5-dihydro-1,2-oxazol-5-carbonyl]amino]butyl]boronic acid], which IC50 is on record?
The IC50 was less than 25 nM.

`CC(C)C[C@H](NC(=O)C1CC(CNC(=O)c2ccc(C(C)(C)C)cc2)=NO1)B(O)O` (stereo partly drawn) [Example 70, ((1R)-1-(3-((4-(tert-butyl)benzamido)methyl)-4,5-dihydroisoxazol-5-carboxamido)-3-methylbutyl)boronic acid] was tested. Which IC50 did it give?
Its IC50 is less than 100 nM.

With `CC(C)C[C@H](NC(=O)C1CC(C(=O)NCc2cc(Cl)ccc2Cl)=NO1)B(O)O` (stereo partly drawn) [Example 75, ((1R)-1-(3-((2,5-dichlorobenzyl)carbamoyl)-4,5-dihydroisoxazol-5-carboxamido)-3-methylbutyl)boronic acid] as the compound, how does the IC50 read?
Its IC50 is less than 100 nM.

`CC(C)C[C@H](NC(=O)C1CC(C(=O)Nc2cccc3ccccc23)=NO1)B(O)O` (stereo partly drawn) [Example 76, ((1R)-3-methyl-1-(3-(naphthalen-1-ylcarbamoyl)-4,5-dihydroisoxazol-5-carboxamido)butyl)boronic acid] was tested. Which IC50 did it give?
The IC50 was less than 50 nM.

Which IC50 does the source give for `CC(C)C[C@H](NC(=O)C1CC(C(=O)Nc2cccc(Cl)c2)=NO1)B(O)O` (stereo partly drawn) [Example 77, ((1R)-1-(3-((3-chlorophenyl)carbamoyl)-4,5-dihydroisoxazol-5-carboxamido)-3-methylbutyl)boronic acid] here?
Its IC50 is less than 250 nM.

For `CC(C)C[C@H](NC(=O)C1CC(CNC(=O)Cc2ccccc2)=NO1)B(O)O` (stereo partly drawn) [Example 79, ((1R)-3-methyl-1-(3-((2-phenylacetamido)methyl)-4,5-dihydroisoxazol-5-carboxamido)butyl)boronic acid], which IC50 is on record?
Its IC50 is less than 100 nM.

For `Cc1cc(C(=O)NCC2=NOC(C(=O)N[C@@H](CC(C)C)B(O)O)C2)no1` (stereo partly drawn) [Example 81, ((1R)-3-methyl-1-(3-((5-methylisoxazol-3-carboxamido)methyl)-4,5-dihydroisoxazol-5-carboxamido)butyl)boronic acid], which IC50 is on record?
Its IC50 is less than 250 nM.

With `CC(C)C[C@H](NC(=O)C1CC(CNC(=O)c2cnccn2)=NO1)B(O)O` (stereo partly drawn) [Example 83, ((1R)-3-methyl-1-(3-((pyrazin-2-carboxamido)methyl)-4,5-dihydroisoxazol-5-carboxamido)butyl)boronic acid] as the compound, how does the IC50 read?
The IC50 was less than 250 nM.
